The source of these data is US20240401044A1, “EXPLOITING IL33 SECRETION AS A THERAPEUTIC TARGET IN CANCER” (ROSWELL PARK CANCER INSTITUTE CORPORATION HEALTH RESEARCH, …, priority 2021, published 2024).

One assay concerns IL33 expression. The assay can be described thus: Western blot of IL33 expression in PDAC cell lines treated with MEK and PI3K/AKT inhibitors. Type of assay: cell-based, mouse. To be noted: cell lines derived from KPC tumor model of PDAC; inhibitor treatment for 24 hrs. As for the experimental part: Results are shown as mean ±SEM. P values were calculated using Student t test. Chi-square test and spearman's correlation analysis was done for human PDAC TMA for statistical significance.
The above in silico findings were further validated by western blot analysis showing a complete loss of IL33 expression upon abolishing Kras* signaling (FIG. 3F-G, FIG. 4A-B). We further validated this finding using cell lines derived from KPC tumor model of PDAC (FIG. 1A).
Primary mouse cell lines were established in the laboratory (PJ-B6-4291, PJ-B6-4298) or gift from Dr. Ronald DePinho (AK-B6, AK14838, AK192, HY19636, HY15559) as described previously and were routinely cultured in RPMI 1640 (Invitrogen) 10% FBS (Invitrogen), 100 U/ml penicillin and 100 U/ml streptomycin. For inducible Kras derived cell lines, 1 μg/ml of doxycycline was directly added to the media. The cell lines were mycoplasma free, based on tests done monthly in the laboratory using Lonza's MycoAlert Mycoplasma Detection Kit assays with confirmatory tests by PCR-based assays.
Medium was removed and the cells were washed twice in ice-cold phosphate-buffered saline (PBS), scraped and collected as pellets after centrifugation at 1700 g for 5 min. The pelleted cells were incubated in radio immune precipitation assay (RIPA) buffer with proteinase and phosphatase inhibitors for 15 min. Lysates were then collected and centrifuged at 12000 rpm for 15 min at 4° C. Protein concentrations were measured using the DC Protein Assay Kit (Biorad, Cat. No. 5000111). SDS-PAGE and immunoblotting were performed as described previously in pre-cast bis-Tris 4-20% gradient gels (Invitrogen). The following antibodies were used: IL33 (R & D system AF3626); pAKT-S473 (CST 9271); pERK-p44/42 (CST 4370) and […] (Sigma-Aldrich, A2228).
In general terms: Immunoblotting shows a protein as a band on a membrane.

Assay [1] has as its system orthotopically transplanted PDAC tumors. The assay is described as follows: Antifungal (fungal depletion) treatment of mice with orthotopically transplanted PDAC tumors: tumor burden and survival. Type of assay: in vivo, C57BL/6 mice. As for the experimental part: (§1) Followed by 3 weeks of amphotericin (0.5ug/ml) treatment in drinking water. After 3 weeks, PDAC cells were orthotopically transplanted and tumor progression studies were performed after 28-35 days. […] Red circles define the tumor boundaries. […] Followed by 3 weeks of amphotericin (0.5ug/ml) treatment in drinking water. After 3 weeks fungus (Alternaria alternata and Malassazia globose, 10^8 CFU/ml) was transplanted in mice. After 7 days of fungus transplantation, PDAC cells were orthotopically transplanted and tumor progression studies were performed after 28-35 days. […] Also, shown are the 18S rRNA sequencing in stool samples. Positive control-Alternaria is a sample of pure Alternaria culture. […] Scale bar 100 μm, unless indicated otherwise. Data are combined from three independent experiments and are presented as mean ±SEM, P values were calculated using Student t-test. ns, no significance.
For all experiments, C57BL/6J (Stock 000664) mice, aged 4-6 weeks were obtained from Jackson Laboratory unless otherwise mentioned. For orthotopic pancreas transplantation, mice were anaesthetized using isoflurane. A 2×2-mm portion of the left abdomen was shaved to facilitate transplantation. An incision was made in the left abdomen and the pancreas was gently exposed along with the spleen. Luciferase-expressing cells were slowly injected into the tail of the pancreas using a Hamilton syringe. Twenty microliters of cells (5×10^5) mixed with 20 μl Matrigel were injected. […]
Live in vivo imaging was performed at the Animal Imaging Facility at Roswell Park Comprehensive Cancer Center. […] Temperature and respiration were regulated using an MR-compatible small animal monitoring system (Model 1250, SAII, Stony Brook, NY.) Following scout scans, tumor burden was determined using multislice, fast spin echo scans in the axial and coronal planes. […] Tumor volumes were calculated by manual segmentation and voxel summation using commercially available, medical image processing software (Analyze 10.0, AnalyzeDirect, Overland Park, KS). […]

In assay [2] the test system is ILC2 and TH2 cells in PDAC tumors. The assay can be described thus: Flow cytometry of tumor infiltrating type 2 immune cells after antifungal treatment. Type of assay: in vivo, C57BL/6 mice. To be noted: oral amphotericin B. As for the experimental part: as §1
For gastrointestinal fungal depletion, C57BL/6 mice were treated with 200 μg amphotericin B per day by oral gavage for five consecutive days, followed by 0.5 μg/ml amphotericin B treatment in drinking water for 21 days. Control groups were gavaged with 200 μl PBS for 5 consecutive days. After completion of antifungal treatment, species specific fungal repopulation was done with Alternaria alternata (ATCC 36376) and Malassezia globosa (MYA-4889). Fungi were administered (1×10^8 CFU/ml) by oral gavage. […]
(In general: Flow cytometry measures light scatter and fluorescence of single cells or particles in a stream.)

Another assay concerns IL33. The assay can be described thus: IHC and IF of IL33 in fungal-depleted PDAC tumors. Type of assay: in vivo, mouse. To be noted: fungal-depleted tumors after amphotericin B course (FIG. 9H). The procedure:
To further test the role of fungi in IL33 secretion and recruitment of ILC2 and TH2 cells in the PDAC TME, we evaluated the effect of Alternaria and Malassezia administered by gavage to PDAC tumor-bearing mice (FIG. 9G). First, fungi resident in the mice were depleted by a course of amphotericin B (i.e., 5 doses of amphotericin B, 200 μg/day by oral gavage), followed by a maintenance dose of 0.5 μg/ml in the drinking water for […]. Following depletion of fungi, we administered either Malassezia globosa or Alternaria alternata (10^8 fungal spores per mouse) by oral gavage into the tumor-bearing mice. At 28 days post-fungal treatment, the tumors were harvested for analyses. […] Intratumoral fungal depletion and repopulation were confirmed by fungal FISH analysis (FIG. 9H). Further, 18S rRNA sequencing confirmed increased presence of Alternaria and Malassezia sp. in the tumor and stool of the mouse receiving fungal transplantation (FIG. 9I, FIG. 10D-F). […] Similarly, Malassezia globosa or Alternaria alternata administration augmented the infiltration of ILC2 (FIG. 9K) and TH2 (FIG. 10G) cell populations within the TME. […]
Harvested tissues were immediately fixed in 10% formalin overnight and embedded in paraffin. […] Immunofluorescence slides were imaged with an Leica confocal Microscope and quantified with ImageJ. […]

As to `Nc1cc(C(F)(F)F)c(-c2cc(N3CCOCC3)nc(N3CCOCC3)n2)cn1` [Buparlisib], the “IL33 expression (western blot)” value in the assay with IL33 expression is “did not lead to a reduction in IL33 expression”.
Same read-out and setting: under `O=C(NOCC1CC1)c1ccc(F)c(F)c1Nc1ccc(I)cc1Cl` [CI-1040] stands “complete inhibition of IL33 expression”; under `CCn1c(-c2nonc2N)nc2c(C#CC(C)(C)O)ncc(OCC3CCCNC3)c21` (stereo not drawn) [GSK-690696], “did not lead to a reduction in IL33 expression”.
Take `C[C@@H]1[C@H](O)[C@@H](C)/C=C/C=C/C=C/C=C/C=C/C=C/C=C/[C@H](O[C@@H]2O[C@H](C)[C@@H](O)[C@H](N)[C@@H]2O)C[C@@H]2O[C@](O)(C[C@@H](O)C[C@@H](O)[C@H](O)CC[C@@H](O)C[C@@H](O)CC(=O)O[C@H]1C)C[C@H](O)[C@H]2C(=O)O` [amphotericin B]: the “tumor burden (wet weight of PDAC tumors)” value in assay [1] (fungal depletion/repopulation experiment, 5 doses 200 μg/day by oral gavage, then 0.5 μg/ml in drinking water (FIG. 9J)) is reported as “significantly decreased tumor burden”. Besides, in assay [1] (oral amphotericin B, orthotopic PDAC tumor-bearing mice (FIG. 9B-C, 10A)), the tumor burden entry is on record as “decreased tumor burden”. For the same compound, the survival entry in assay [1] (oral amphotericin B, orthotopic PDAC tumor-bearing mice (FIG. 9D)) was “increased survival”. Besides, the “tumor infiltrating ILC2” value in assay [2] (relative to total CD45 positive cells (FIG. 9E)) was “reduced tumor infiltrating ILC2”. Further, in assay [2] (relative to total CD45 positive cells (FIG. 9F)), the “tumor infiltrating TH2 cells” value is recorded as “reduced”. The “IL33 localisation in PDAC tumors (IHC and IF)” value with IL33 is on record as “IL33 signal restricted predominantly to the nucleus of cancer cells”.
